Measured values published in patent US8853251B2, “Ester pro-drugs of [3-(1-(1H-imidazol-4-YL)ethyl)-2-methylphenyl] methanol for treating retinal diseases” (Allergan, Inc., priority 2010, dated 2014).

Legend:
[1] = system: blue light model of retinal degeneration in rats; assay: The Blue Light Model of retinal degeneration; type: in vivo, rat; conditions: male Sprague Dawley rats, subcutaneous infusion pumps 1 mg/kg/day starting two days before blue light (4 hours, 6100-6500 lux), OCT at 7 days post exposure
Protocol: Pro-drug iso-Butyric acid 3-[(S)-1-(1H-imidazol-4-yl)-ethyl]-2-methyl-benzyl ester is evaluated in the blue light model of retinal degeneration in rats. The drugs is administered continuously with subcutaneous infusion pumps at a dose of 1 mg/kg/day starting two days before blue light exposure. Twenty 4-month old male Sprague Dawley rats (body weight 470-550 g) were used in this study. The animals were exposed to room light on a 12 hour light/12 hour dark cycle before the experiment. All animals were dark adapted overnight (16-20 hours) before blue light. Under the intensity of 6100-6500 lux, rats were exposed to blue light for 4 hours. After the blue light, rats were placed in the dark for another 3 days before returning to normal 12 hour light/12 hour dark. Ocular Coherence Tomography (OCT) measurement was performed at 7 days post blue light exposure.

normal DB rabbits = assay: Visual Enhancement Model (sweep visual evoked potential acuity); type: in vivo, rabbit; conditions: pigmented (Dutch-Belted) rabbits, intravenous route, 10-30 minutes post-dose, conscious animals, bilateral recordings
Protocol: Spatial sweep visual evoked potential (sVEP) acuity is assessed with PowerDiva software version 1.8. Recordings were made bilaterally in conscious animals.

| Compound | retinal thickness measured by OCT after blue light exposure [1] | Spatial sweep visual evoked potential (sVEP) acuity (normal DB rabbits) |
| --- | --- | --- |
| Brc1c(NC2=NCCN2)ccc2nccnc12 [Brimonidine, reference compound] | did not prevent the change in retinal thickness |  |
| Cc1c(COC(=O)C(C)C)cccc1[C@H](C)c1c[nH]cn1 [Compound 1, iso-Butyric acid 3-[(S)-1-(1H-imidazol-4-yl)-ethyl]-2-methyl-benzyl ester] | significantly reduced the damage caused by blue light | enhances visual acuity |
